Assay results from US9255098B2, “Xanthine derivative” (Chengdu Easton Pharmaceutical Co., Ltd., priority 2012, dated 2016).
Structures can show the parent of a compound that is named as a salt.

Experiments:
[1] = target: Dipeptidyl peptidase IV (DPP-IV) (Homo sapiens (Human), UniProt P27487); experiment: DPP-IV activity inhibitory assay in vitro; type: biochemical; conditions: substrate Gly-Pro-7-amido-4-methylcoumarin, fluorescence 355/460 nm
Method: 2.1 Dipeptidyl peptidase IV (DPP-IV): SIGMA products, Item No. D4943-1VL.
2.3 DPP-IV buffer: containing 25 mM Hepes, 140 mM NaCl, 1% BSA, 80 mM MgCl2, of which pH was adjusted to 8.0.
2.5 Testing equipment: envision (PerkinElmer Company).
The variation of the product amount can be determined by the variation of fluorescence intensity, so as to reflect the activity level of the enzyme.
The dipeptidyl peptidase IV (DPP-IV), DPP-IV buffer and test samples were used to construct the reaction system of 200 μL, while the blank control (without enzyme and samples) and negative control (without samples) having the same volume were set up. […] Inhibition ratio was calculated according to the fluorescence intensity F value, inhibition ratio=[1−(Fsample−Fblank)/(Fnegative−Fblank)]×100. […] According to inhibition ratio, 4 Parameter Logistic Model in Xlfit software was applied to calculate IC50.

normal KM mice = experiment: Impact on glucose tolerance in normal mice; type: in vivo; conditions: for blood glucose at 30 min after glucose loaded / blood glucose at 60 min after glucose loaded / blood glucose at 120 min after glucose loaded / Fasting blood glucose: normal KM mice, x ± SD; for blood glucose at 30 min after glucose loaded / blood glucose at 60 min after glucose loaded / blood glucose at 120 min after glucose loaded / blood glucose value compared with the positive drug (Linagliptin) / blood glucose levels compared with the blank group: 3 mg/kg i.g; for blood glucose at 30 min after glucose loaded / blood glucose at 60 min after glucose loaded / blood glucose at 120 min after glucose loaded: glucose 8 g/kg i.g 30 min after drug; for Fasting blood glucose: fasted, before administration (baseline), group dosed 3 mg/kg i.g; for blood glucose value compared with the positive drug (Linagliptin) / blood glucose levels compared with the blank group: normal mice, at 30, 60 and 120 min after glucose loaded; for blood glucose levels compared with the blank group: P<0.01
Method: KM mice, 6 weeks old, weighing 18˜22 g, half male and half female, 60 mice, provided by Chengdu Dashuo Biological Technology Co., Ltd., Production license: SCXK (Chuan) 2008-24. Animals were housed in the animal room after purchased, adaptively observed for at least three days, and used for assays […] they were qualified for the quarantine standard.
(§1) 2.1 Animals were fasted for at least 12 hours before starting the assay;
2.2 Grouping: fasting blood glucose values of the fasted mice were measured, and the mice were randomly grouped according to Table 1, with no significant difference between the groups;
(§2) Animals in each group were administrated with corresponding investigational compounds according the Table 1 by intragastric administration (i.g), then administrated with glucose (8 g/kg) respectively by intragastric administration at 30 min after administrating drugs, and the blood glucose values thereof were measured respectively at 30 min, 60 min and 120 min after administrating the glucose (glucose loaded).
(§3) Excel was used for statistics, experimental data were expressed as ( x±SD), and two-sided T-test method was used to statistically compare the experimental data among multiple groups.

[2] = tested on: Type II spontaneous diabetic KKAy obese mice; experiment: Impact on blood glucose in spontaneous diabetic mice; type: in vivo; conditions: for blood glucose at 30 min after glucose loaded / blood glucose at 60 min after glucose loaded / blood glucose at 120 min after glucose loaded: glucose 8 g/kg i.g 30 min after drug; for blood glucose at 30 min after glucose loaded / blood glucose at 60 min after glucose loaded / blood glucose at 120 min after glucose loaded / Fasting blood glucose: x ± SD; for Fasting blood glucose: fasted, before administration (baseline), group dosed 3 mg/kg i.g
Method: Type II spontaneous diabetic KKAy obese mice, 60 mice, 14 weeks old, half male and half female, purchased from Institute of Laboratory Animal Science, Chinese Academy of Medical Sciences (Qualified number: SCXK (Jing) 2009-0004). Animals were housed in the animal room after purchased, adaptively observed for at least three days, and used for assays […] they were qualified for the quarantine standard.
as §1
2.2 Fasting blood glucose values of the fasted mice were measured by ACCU-CHEK active glucose test strips, and the mice were randomly grouped according to Table 3. In addition, the C57BL/6J mice were used for the blank control group, while the type II spontaneous diabetic KKAy mice were used for the model group.
as §2, with “according” for “according the”, “Table 3” for “Table 1”
as §3

Sequence of Dipeptidyl peptidase IV (DPP-IV) (P27487 whole entry): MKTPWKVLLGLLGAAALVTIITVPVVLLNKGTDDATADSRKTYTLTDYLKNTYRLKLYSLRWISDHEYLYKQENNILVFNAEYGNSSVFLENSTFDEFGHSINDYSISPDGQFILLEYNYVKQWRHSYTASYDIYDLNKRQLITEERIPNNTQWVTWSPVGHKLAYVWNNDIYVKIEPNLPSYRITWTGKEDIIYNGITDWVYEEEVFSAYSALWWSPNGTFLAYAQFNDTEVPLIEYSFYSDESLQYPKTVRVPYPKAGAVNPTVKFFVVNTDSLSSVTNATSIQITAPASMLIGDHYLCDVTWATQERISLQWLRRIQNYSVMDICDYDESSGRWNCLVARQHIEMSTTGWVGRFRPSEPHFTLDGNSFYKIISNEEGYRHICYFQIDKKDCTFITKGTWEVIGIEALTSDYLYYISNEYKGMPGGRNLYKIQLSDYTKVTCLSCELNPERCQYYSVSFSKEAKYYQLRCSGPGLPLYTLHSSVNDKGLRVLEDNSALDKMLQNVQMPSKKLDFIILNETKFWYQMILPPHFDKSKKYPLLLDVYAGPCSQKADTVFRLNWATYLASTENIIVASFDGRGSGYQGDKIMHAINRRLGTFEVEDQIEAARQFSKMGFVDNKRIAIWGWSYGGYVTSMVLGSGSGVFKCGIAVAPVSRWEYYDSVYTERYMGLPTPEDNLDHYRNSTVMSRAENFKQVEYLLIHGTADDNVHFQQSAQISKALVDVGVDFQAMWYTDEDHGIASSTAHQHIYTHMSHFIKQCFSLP

Question: With `CC#CCn1c(N2CCC[C@@H](N)C2)nc2c1c(=O)n(Cc1nc3ccccc3s1)c(=O)n2C` [Ex. 2, 1-[(1,3-benzothiazol-2-yl)methyl]-3-methyl-7-(2-butyn-1-yl)-8-[(R)-3-amino-piperidin-1-yl]-xanthine] as the compound, how does the IC50 [1] read?
Answer: 0.1 nM

Question: What about the “blood glucose at 30 min after glucose loaded” value (“blood glucose at 30 min” for short) (normal KM mice) of the same compound?
Answer: 15.59 ± 2.04 mmol/L

Question: And the “blood glucose at 60 min after glucose loaded” value (“blood glucose at 60 min” below) (normal KM mice)?
Answer: 12.78 ± 1.97 mmol/L

Question: And the “blood glucose at 120 min after glucose loaded” value (shortened to “blood glucose at 120 min”) (normal KM mice)?
Answer: 8.96 ± 1.16 mmol/L

Question: And the Fasting blood glucose (normal KM mice)?
Answer: 7.43 ± 1.32 mmol/L

Question: And the “blood glucose value compared with the positive drug (Linagliptin)” value (normal KM mice)?
Answer: significantly decreased

Question: What about the “blood glucose levels compared with the blank group” value (normal KM mice) of the same compound?
Answer: extremely significantly decrease

Question: And the “blood glucose value compared with the positive drug Linagliptin at 30 min after glucose loaded” value ([2]; 3 mg/kg i.g)?
Answer: significantly decreased

Question: And the “blood glucose at 30 min” value ([2]; 3 mg/kg i.g)?
Answer: 15.59 ± 1.23^▴▴★ mmol/L

Question: What about the “blood glucose at 60 min” value ([2]; 3 mg/kg i.g) of the same compound?
Answer: 11.41 ± 1.58^▴▴★ mmol/L

Question: What about the “blood glucose at 120 min” value ([2]; 3 mg/kg i.g) of the same compound?
Answer: 10.81 ± 1.37 mmol/L

Question: And the Fasting blood glucose [2]?
Answer: 9.07 ± 0.67 mmol/L

Question: Which IC50 ([1]; hydrochloride) does the source give for `CC#CCn1c(N2CCC[C@@H](N)C2)nc2c1c(=O)n(Cc1nc3ccccc3s1)c(=O)n2C` [Ex. 5, 1-[(1,3-benzothiazol-2-yl)methyl]-3-methyl-7-(2-butyn-1-yl)-8-[(R)-3-amino-piperidin-1-yl]-xanthine hydrochloride] here?
Answer: 0.15 nM

Question: What does the source list for `CC#CCn1c(N2CCC[C@@H](N)C2)nc2c1c(=O)n(Cc1nc3cc(Cl)ccc3s1)c(=O)n2C` [Ex. 3, 1-[(5-chloro-1,3-benzothiazol-2-yl)methyl]-3-methyl-7-(2-butyn-1-yl)-8-[(R)-3-amino-piperidin-1-yl]-xanthine]?
Answer: IC50 [1]: 0.2 nM; blood glucose at 30 min after glucose loaded (normal KM mice): 15.61 ± 1.10 mmol/L; blood glucose at 60 min after glucose loaded (normal KM mice): 13.49 ± 1.31 mmol/L; blood glucose at 120 min after glucose loaded (normal KM mice): 8.90 ± 1.26 mmol/L; Fasting blood glucose (normal KM mice): 7.19 ± 1.04 mmol/L; blood glucose value compared with the positive drug (Linagliptin) (normal KM mice): significantly decreased; blood glucose levels compared with the blank group (normal KM mice): extremely significantly decrease; blood glucose value compared with the positive drug Linagliptin at 30 min after glucose loaded ([2]; 3 mg/kg i.g): significantly decreased; blood glucose at 30 min after glucose loaded ([2]; 3 mg/kg i.g): 15.86 ± 1.04^▴▴★ mmol/L; blood glucose at 60 min after glucose loaded ([2]; 3 mg/kg i.g): 11.28 ± 1.67^▴▴★ mmol/L; blood glucose at 120 min after glucose loaded ([2]; 3 mg/kg i.g): 10.73 ± 1.46 mmol/L; Fasting blood glucose [2]: 9.15 ± 0.61 mmol/L

Question: Which results are given for `CC#CCn1c(N2CCC[C@@H](N)C2)nc2c1c(=O)n(Cc1nc(C)c3ccccc3n1)c(=O)n2C` [Linagliptin, reference compound]?
Answer: blood glucose at 30 min after glucose loaded (normal KM mice): 17.07 ± 1.83 mmol/L; blood glucose at 60 min after glucose loaded (normal KM mice): 14.98 ± 1.66 mmol/L; blood glucose at 120 min after glucose loaded (normal KM mice): 9.96 ± 0.89 mmol/L; Fasting blood glucose (normal KM mice): 7.13 ± 0.86 mmol/L; blood glucose levels compared with the blank group (normal KM mice): extremely significantly decrease; blood glucose levels compared with the model group ([2]; 3 mg/kg i.g, at 30, 60 and 120 min after glucose loaded, P<0.01): extremely significantly decrease; blood glucose at 30 min after glucose loaded ([2]; 3 mg/kg i.g): 17.14 ± 1.45 mmol/L; blood glucose at 60 min after glucose loaded ([2]; 3 mg/kg i.g): 13.10 ± 1.38 mmol/L; blood glucose at 120 min after glucose loaded ([2]; 3 mg/kg i.g): 11.27 ± 1.43 mmol/L; Fasting blood glucose [2]: 9.09 ± 0.53 mmol/L

Question: What does the source list for `CC#CCn1c(N2CCC[C@@H](N)C2)nc2c1c(=O)n(Cc1nc3cc(F)ccc3s1)c(=O)n2C` [Ex. 1, 1-[(5-fluoro-1,3-benzothiazol-2-yl)methyl]-3-methyl-7-(2-butyn-1-yl)-8-[(R)-3-amino-piperidin-1-yl]-xanthine]?
Answer: blood glucose at 30 min after glucose loaded (normal KM mice): 15.02 ± 1.99 mmol/L; blood glucose at 60 min after glucose loaded (normal KM mice): 12.61 ± 1.98 mmol/L; blood glucose at 120 min after glucose loaded (normal KM mice): 8.79 ± 0.88 mmol/L; Fasting blood glucose (normal KM mice): 7.27 ± 0.74 mmol/L; blood glucose value compared with the positive drug (Linagliptin) (normal KM mice): extremely significantly decreased; blood glucose levels compared with the blank group (normal KM mice): extremely significantly decrease; blood glucose value compared with the positive drug Linagliptin at 30 min after glucose loaded ([2]; 3 mg/kg i.g): extremely significantly decreased; blood glucose at 30 min after glucose loaded ([2]; 3 mg/kg i.g): 14.98 ± 1.53^▴▴★★ mmol/L; blood glucose at 60 min after glucose loaded ([2]; 3 mg/kg i.g): 11.10 ± 2.45^▴▴★ mmol/L; blood glucose at 120 min after glucose loaded ([2]; 3 mg/kg i.g): 9.97 ± 1.28 mmol/L; Fasting blood glucose [2]: 9.29 ± 0.71 mmol/L

Question: Which “blood glucose at 30 min” value (normal KM mice) does the source give for `CC#CCn1c(N2CCC[C@@H](N)C2)nc2c1c(=O)n(Cc1nc3cc(F)ccc3s1)c(=O)n2C.Cl` [Ex. 4, 1-[(5-fluoro-1,3-benzothiazol-2-yl)methyl]-3-methyl-7-(2-butyn-1-yl)-8-[(R)-3-amino-piperidin-1-yl]-xanthine hydrochloride] here?
Answer: 15.50 ± 1.94 mmol/L

Question: What about the “blood glucose at 60 min” value (normal KM mice) of the same compound?
Answer: 12.75 ± 1.43 mmol/L

Question: What about the “blood glucose at 120 min” value (normal KM mice) of the same compound?
Answer: 8.91 ± 0.98 mmol/L

Question: What about the Fasting blood glucose (normal KM mice) of the same compound?
Answer: 7.25 ± 0.98 mmol/L

Question: And the “blood glucose value compared with the positive drug (Linagliptin)” value (normal KM mice)?
Answer: significantly decreased

Question: What about the “blood glucose levels compared with the blank group” value (normal KM mice) of the same compound?
Answer: extremely significantly decrease

Question: What about the “blood glucose value compared with the positive drug Linagliptin at 30 min after glucose loaded” value ([2]; 3 mg/kg i.g) of the same compound?
Answer: significantly decreased

Question: What about the “blood glucose at 30 min” value ([2]; 3 mg/kg i.g) of the same compound?
Answer: 15.60 ± 1.30^▴▴★ mmol/L

Question: What about the “blood glucose at 60 min” value ([2]; 3 mg/kg i.g) of the same compound?
Answer: 11.45 ± 1.60^▴▴★ mmol/L

Question: What about the “blood glucose at 120 min” value ([2]; 3 mg/kg i.g) of the same compound?
Answer: 10.75 ± 1.20 mmol/L

Question: And the Fasting blood glucose [2]?
Answer: 9.17 ± 0.58 mmol/L
